Assays:
male mice of OF1 strain [1] = assay: Measurement of locomotor activity: determination of the doses of amisulpride; type: in vivo
Description: The animals used in this study are male mice of OF1 strain weighing about 20 g at the start of the experiments (Charles River, France). They live in an environment whose daily lighting cycle (07:30h; 17:30h) is constant throughout the year, and the temperature is maintained at about 22° C. The mice have free access to water and food, and the experiments are performed in accordance with the international rules on ethics in animal experimentation.
The mice are placed individually in a sound-insulated plastic cage ([…]) and are exposed to a light intensity of 5 lux. The animals' movements are captured by photoelectric cells for 60 minutes and recorded by computer. The experiment starts immediately after injection of the product. In this study, the term “locomotor activity” takes into account only the horizontal movements of the animals.
A one-factor (treatment) analysis of variance (ANOVA) is used for all the behavioral tests performed, followed by a Student-Newman-Keuls test if p<0.05 in the ANOVA. In all the cases, the significance is accepted once p<0.05.
A molecule endowed with dopaminergic antagonist activity reduces locomotor activity. It is this property that is exploited in order to determine the dose after which amisulpride has dopaminergic antagonist activity in mice (i.e. an effect on the D2 and D3 post-synaptic receptors, and not on the D2 and D3 auto-receptors). […]

male mice of OF1 strain [2] = assay: Behavioral sensitization to morphine (locomotor activity on D15 after morphine injection); type: in vivo
Description: The locomotor activity is influenced by a wide diversity of factors.
The experimental protocol used may be described in the following manner:
Dose of amisulpride (AMS): 0.5 mg/kg Dose of buprenorphine (Bup): 0.1 mg/kg
The animals received from D1 to D7 either morphine or physiological saline, from Day D8 to D14 either physiological saline, or buprenorphine, amisulpride, buprenorphine and amisulpride according to the scheme:

| SMILES | effect on locomotor activity at low dose (male mice of OF1 strain [1]; 0.5 mg/kg) | dose at and above which the decrease in locomotor activity is significant (male mice of OF1 strain [1]; doses tested 0.5, 2, 10, 20 and 50 mg/kg, horizontal movements over 60 minutes) | reduction of the behavioral sensitization to morphine (male mice of OF1 strain [2]; morphine D1 to D7, treatment between D8 and D14 (amisulpride 0.5 mg/kg, buprenorphine 0.1 mg/kg), morphine 10 mg/kg on D15) | behavioral sensitization on D15 relative to animals chronically treated with saline (male mice of OF1 strain [2]; mice chronically treated D1 to D7, locomotor activity on D15 after morphine 10 mg/kg) |
| --- | --- | --- | --- | --- |
| CCN1CCCC1CNC(=O)c1cc(S(=O)(=O)CC)c(N)cc1OC (stereo not shown) [amisulpride] | locomotor hyperactivity is observed | ≥ 10 mg/kg | does not make it possible to reduce this behavioral sensitization | – |
| CN1CC[C@]23c4c5ccc(O)c4O[C@H]2[C@@H](O)C=C[C@H]3[C@H]1C5 [morphine] | – | – | – | show behavioral sensitization |
